Results published in patent US7015228B2, “4-amino-2-(2-pyridyl)pyrimidines as microbicidal active substances” (Ciba Specialty Chemicals Corporation, priority 2001, dated 2006).
Converted amounts (≈) assume the structure as drawn.

Tests used:
Type in all cases: cell-based
[1] = tested on: Trichophyton mentagrophytes ATCC 9533; experiment: Minimum inhibitory concentration (MIC), further microorganisms; conditions: Table 8; * = significant inhibition of growth, but not complete inhibition
How it was run: (§1)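 Organisms at 1–5×10^6 CFU/ml were diluted 1:100 into CASO broth (bacteria, yeast) or Sabouraud 2% glucose broth (mould) over 1:2 DMSO dilution series of compound. Bacteria and yeast were incubated 48 h at 37 °C and mould 5 days at 28 °C. MIC is the lowest concentration giving ≤20% growth versus control by OD620, in duplicate.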

[2] = tested on: Enterococcus hirae ATCC 10541; experiment: as above; conditions: Table 8; * = significant inhibition of growth, but not complete inhibition
How it was run: as §1

[3] = tested on: Aspergillus niger ATCC 6275; experiment: as above; conditions: Table 8; * = significant inhibition of growth, but not complete inhibition
How it was run: as §1

[4] = tested on: Candida albicans ATCC 10231; experiment: as above; conditions: Table 8; * = significant inhibition of growth, but not complete inhibition
How it was run: as §1

[5] = tested on: Salmonella choleraesuis ATCC 10708; experiment: as above; conditions: Table 8
How it was run: as §1

[6] = tested on: Klebsiella pneumonia ATCC 4352; experiment: as above; conditions: Table 8; * = significant inhibition of growth, but not complete inhibition
How it was run: as §1

[7] = tested on: Epidermophyton floccosum DSM 10709; experiment: as above; conditions: Table 8; * = significant inhibition of growth, but not complete inhibition
How it was run: as §1

[8] = tested on: Staphylococcus aureus ATCC 9144; experiment: as above; conditions: Table 8; * = significant inhibition of growth, but not complete inhibition
How it was run: as §1

[9] = tested on: Pseudomonas aeruginosa CIP A-22; experiment: as above; conditions: Table 8
How it was run: as §1

[10] = tested on: S. epidermidis ATCC 12228; experiment: as above; conditions: Table 8; * = significant inhibition of growth, but not complete inhibition
How it was run: as §1

[11] = tested on: Micrococcus luteus ATCC 9341; experiment: as above; conditions: Table 8; * = significant inhibition of growth, but not complete inhibition
How it was run: as §1

[12] = tested on: Staphylococcus hominis DMS 20328; experiment: Minimum inhibitory concentration (MIC) in microtitre plates; conditions: Table 7; 48 hours at 37° C.; MIC = ≦20% growth compared to control
How it was run: (§2)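 Compounds in DMSO, 1:2 dilution series; bacteria at 1–5×10^6 CFU/ml diluted 1:100 in CASO broth. Incubation 48 h at 37° C, growth read as OD 620 nm. MIC is the lowest concentration giving ≤20% growth relative to control; duplicates.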

[13] = tested on: Escherichia coli NCTC 8196; experiment: as above; conditions: for Minimum inhibitory concentration (MIC) E. coli: Table 7, 48 hours at 37° C., MIC = ≦20% growth compared to control; for Minimum inhibitory concentration (MIC) E. coli NCTC 8196: Table 8, * = significant inhibition of growth, but not complete inhibition
How it was run: as §2

Q: With `CCCCCCCCCCCNc1cc(C)nc(-c2ccccn2)n1` [compound 92] as the compound, how does the “Minimum inhibitory concentration (MIC) Trichophyton mentagrophytes ATCC 9533” value [1] read?
A: The value was 15 µg/mL (≈ 44.1 µM).

Q: And the “Minimum inhibitory concentration (MIC) Enterococcus hirae ATCC 10541” value [2]?
A: The value was 3.75 µg/mL (≈ 11 µM).

Q: What about the “Minimum inhibitory concentration (MIC) Aspergillus niger ATCC 6275” value [3] of the same compound?
A: The value was “*60 μg/mL”.

Q: And the “Minimum inhibitory concentration (MIC) Candida albicans ATCC 10231” value [4]?
A: Its value is 15 µg/mL (≈ 44.1 µM).

Q: What about the “Minimum inhibitory concentration (MIC) Salmonella choleraesuis ATCC 10708” value [5] of the same compound?
A: Its value is greater than 120 µg/mL.

Q: What about the “Minimum inhibitory concentration (MIC) Klebsiella pneumonia ATCC 4352” value [6] of the same compound?
A: The value was 120 µg/mL (≈ 352 µM).

Q: What about the “Minimum inhibitory concentration (MIC) Epidermophyton floccosum DSM 10709” value [7] of the same compound?
A: The value was 15 µg/mL (≈ 44.1 µM).

Q: And the “Minimum inhibitory concentration (MIC) Staphylococcus aureus ATCC 9144” value [8]?
A: The value was 3.75 µg/mL (≈ 11 µM).

Q: And the “Minimum inhibitory concentration (MIC) Pseudomonas aeruginosa CIP A-22” value [9]?
A: Its value is greater than 120 µg/mL.

Q: And the “Minimum inhibitory concentration (MIC) S. epidermidis ATCC 12228” value [10]?
A: The value was “*1.9 μg/mL”.

Q: What about the “Minimum inhibitory concentration (MIC) Micrococcus luteus ATCC 9341” value [11] of the same compound?
A: The value was less than 0.5 µg/mL.

Q: And the “Minimum inhibitory concentration (MIC) S. hominis” value [12]?
A: The value was 3.75 µg/mL (≈ 11 µM).

Q: What about the “Minimum inhibitory concentration (MIC) E. coli” value [13] of the same compound?
A: Its value is greater than 120 µg/mL.

Q: And the “Minimum inhibitory concentration (MIC) E. coli NCTC 8196” value [13]?
A: The value was greater than 120 µg/mL.

Q: Which “Minimum inhibitory concentration (MIC) Trichophyton mentagrophytes ATCC 9533” value [1] does the source give for `CCCCCCCCCCCCCCCNc1cc(C)nc(-c2ccccn2)n1` [compound 93] here?
A: The value was greater than 60 µg/mL.

Q: And the “Minimum inhibitory concentration (MIC) Enterococcus hirae ATCC 10541” value [2]?
A: Its value is 15 µg/mL (≈ 37.8 µM).

Q: And the “Minimum inhibitory concentration (MIC) Aspergillus niger ATCC 6275” value [3]?
A: Its value is greater than 60 µg/mL.

Q: What about the “Minimum inhibitory concentration (MIC) Candida albicans ATCC 10231” value [4] of the same compound?
A: The value was “*120 μg/mL”.

Q: What about the “Minimum inhibitory concentration (MIC) Salmonella choleraesuis ATCC 10708” value [5] of the same compound?
A: The value was greater than 120 µg/mL.

Q: And the “Minimum inhibitory concentration (MIC) Klebsiella pneumonia ATCC 4352” value [6]?
A: The value was greater than 120 µg/mL.

Q: And the “Minimum inhibitory concentration (MIC) Epidermophyton floccosum DSM 10709” value [7]?
A: The value was greater than 60 µg/mL.

Q: What about the “Minimum inhibitory concentration (MIC) Staphylococcus aureus ATCC 9144” value [8] of the same compound?
A: The value was 15 µg/mL (≈ 37.8 µM).

Q: And the “Minimum inhibitory concentration (MIC) Pseudomonas aeruginosa CIP A-22” value [9]?
A: Its value is greater than 120 µg/mL.

Q: And the “Minimum inhibitory concentration (MIC) S. epidermidis ATCC 12228” value [10]?
A: The value was 7.5 µg/mL (≈ 18.9 µM).

Q: And the “Minimum inhibitory concentration (MIC) Micrococcus luteus ATCC 9341” value [11]?
A: Its value is 1.9 µg/mL (≈ 4.79 µM).

Q: And the “Minimum inhibitory concentration (MIC) S. hominis” value [12]?
A: Its value is 7.5 µg/mL (≈ 18.9 µM).

Q: What about the “Minimum inhibitory concentration (MIC) E. coli” value [13] of the same compound?
A: The value was greater than 120 µg/mL.

Q: And the “Minimum inhibitory concentration (MIC) E. coli NCTC 8196” value [13]?
A: The value was greater than 120 µg/mL.

Q: Which “Minimum inhibitory concentration (MIC) Trichophyton mentagrophytes ATCC 9533” value [1] does the source give for `CCCCCCCCCCCNc1cc(C(C)C)nc(-c2ccccn2)n1` [compound 98] here?
A: Its value is greater than 60 µg/mL.

Q: And the “Minimum inhibitory concentration (MIC) Enterococcus hirae ATCC 10541” value [2]?
A: Its value is 1.9 µg/mL (≈ 5.16 µM).

Q: And the “Minimum inhibitory concentration (MIC) Aspergillus niger ATCC 6275” value [3]?
A: Its value is greater than 60 µg/mL.

Q: What about the “Minimum inhibitory concentration (MIC) Candida albicans ATCC 10231” value [4] of the same compound?
A: The value was 30 µg/mL (≈ 81.4 µM).

Q: And the “Minimum inhibitory concentration (MIC) Salmonella choleraesuis ATCC 10708” value [5]?
A: The value was greater than 120 µg/mL.

Q: What about the “Minimum inhibitory concentration (MIC) Klebsiella pneumonia ATCC 4352” value [6] of the same compound?
A: Its value is 120 µg/mL (≈ 326 µM).

Q: And the “Minimum inhibitory concentration (MIC) Epidermophyton floccosum DSM 10709” value [7]?
A: The value was 15 µg/mL (≈ 40.7 µM).

Q: What about the “Minimum inhibitory concentration (MIC) Staphylococcus aureus ATCC 9144” value [8] of the same compound?
A: Its value is 1.9 µg/mL (≈ 5.16 µM).

Q: And the “Minimum inhibitory concentration (MIC) Pseudomonas aeruginosa CIP A-22” value [9]?
A: The value was greater than 120 µg/mL.

Q: And the “Minimum inhibitory concentration (MIC) S. epidermidis ATCC 12228” value [10]?
A: Its value is 1.9 µg/mL (≈ 5.16 µM).

Q: What about the “Minimum inhibitory concentration (MIC) Micrococcus luteus ATCC 9341” value [11] of the same compound?
A: Its value is less than 0.5 µg/mL.

Q: And the “Minimum inhibitory concentration (MIC) S. hominis” value [12]?
A: The value was 3.75 µg/mL (≈ 10.2 µM).

Q: And the “Minimum inhibitory concentration (MIC) E. coli” value [13]?
A: The value was greater than 120 µg/mL.

Q: What about the “Minimum inhibitory concentration (MIC) E. coli NCTC 8196” value [13] of the same compound?
A: The value was 120 µg/mL (≈ 326 µM).

Q: `CCCCCCCCCCCCCCCNc1cc(C(C)C)nc(-c2ccccn2)n1` [compound 99] was tested. Which “Minimum inhibitory concentration (MIC) Trichophyton mentagrophytes ATCC 9533” value [1] did it give?
A: Its value is greater than 60 µg/mL.

Q: What about the “Minimum inhibitory concentration (MIC) Enterococcus hirae ATCC 10541” value [2] of the same compound?
A: Its value is 3.75 µg/mL (≈ 8.83 µM).

Q: What about the “Minimum inhibitory concentration (MIC) Aspergillus niger ATCC 6275” value [3] of the same compound?
A: The value was greater than 60 µg/mL.

Q: And the “Minimum inhibitory concentration (MIC) Candida albicans ATCC 10231” value [4]?
A: Its value is greater than 60 µg/mL.

Q: What about the “Minimum inhibitory concentration (MIC) Salmonella choleraesuis ATCC 10708” value [5] of the same compound?
A: The value was greater than 60 µg/mL.

Q: What about the “Minimum inhibitory concentration (MIC) Klebsiella pneumonia ATCC 4352” value [6] of the same compound?
A: The value was greater than 60 µg/mL.

Q: What about the “Minimum inhibitory concentration (MIC) Epidermophyton floccosum DSM 10709” value [7] of the same compound?
A: The value was “*60 μg/mL”.

Q: And the “Minimum inhibitory concentration (MIC) Staphylococcus aureus ATCC 9144” value [8]?
A: The value was 7.5 µg/mL (≈ 17.7 µM).

Q: And the “Minimum inhibitory concentration (MIC) Pseudomonas aeruginosa CIP A-22” value [9]?
A: Its value is greater than 60 µg/mL.

Q: And the “Minimum inhibitory concentration (MIC) S. epidermidis ATCC 12228” value [10]?
A: Its value is 3.75 µg/mL (≈ 8.83 µM).

Q: What about the “Minimum inhibitory concentration (MIC) Micrococcus luteus ATCC 9341” value [11] of the same compound?
A: The value was 1.0 µg/mL (≈ 2.35 µM).

Q: And the “Minimum inhibitory concentration (MIC) S. hominis” value [12]?
A: The value was 15 µg/mL (≈ 35.3 µM).

Q: What about the “Minimum inhibitory concentration (MIC) E. coli” value [13] of the same compound?
A: Its value is greater than 120 µg/mL.

Q: What about the “Minimum inhibitory concentration (MIC) E. coli NCTC 8196” value [13] of the same compound?
A: Its value is greater than 60 µg/mL.
